Consider 27 molecules from patent publication US7420001B2 (Wyeth, priority 2003, dated 2008).

SMILES strings stand for the structures. Like-named read-outs stand apart in the source and are kept apart here.

The target in assay [1] is T1, MMP-13 (Homo sapiens, UniProt P45452).
T1 construct: made in house
Kind of assay: In-vitro fluorescence assay of MMP-13 activity. Format: biochemical.

Assay [2] has as its target T2, MMP-2 (Homo sapiens, UniProt P08253).
T2 construct: purchased Oncogene Research Products (Calbiochem) PF023
T2 sequence (P08253 110-660): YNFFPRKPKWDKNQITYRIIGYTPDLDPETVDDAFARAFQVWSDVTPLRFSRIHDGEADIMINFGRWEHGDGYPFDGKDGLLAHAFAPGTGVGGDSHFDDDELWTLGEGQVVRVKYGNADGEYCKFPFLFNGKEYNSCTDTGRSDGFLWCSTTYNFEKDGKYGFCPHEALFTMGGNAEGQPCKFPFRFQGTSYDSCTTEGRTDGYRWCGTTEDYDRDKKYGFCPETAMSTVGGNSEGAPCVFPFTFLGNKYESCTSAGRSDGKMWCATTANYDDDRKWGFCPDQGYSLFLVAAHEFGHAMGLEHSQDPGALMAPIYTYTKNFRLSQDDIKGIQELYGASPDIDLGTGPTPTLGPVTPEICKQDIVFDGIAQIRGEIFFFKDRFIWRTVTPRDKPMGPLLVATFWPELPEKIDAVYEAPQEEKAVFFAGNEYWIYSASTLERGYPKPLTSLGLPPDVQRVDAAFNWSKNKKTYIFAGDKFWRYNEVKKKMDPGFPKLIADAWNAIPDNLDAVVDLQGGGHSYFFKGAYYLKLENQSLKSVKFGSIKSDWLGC
Kind of assay: In-vitro fluorescence assay of MMP-2 activity. The class given is biochemical. Conditions: recombinant human MMP-2; read-out: MMP-2 IC50.
From the text: A continuous assay was used in which the substrate is a synthetic peptide containing a fluorescent group (7-methoxycoumarin; Mca) which is quenched by energy transfer to a 2,4-dinitrophenyl group. […] The source of enzyme in the assay was the recombinant human MMP-2 (66 kDa) purchased from Oncogene Research Products (catalog number PF023 from Calbiochem). The substrate used was Mca-PQGL-(3-[2,4-dinitrophenyl]-L-2,3-diaminopropionyl)-AR-OH (denoted as Wammp-5, custom synthesized by AnaSpec, Inc.). The assay buffer consisted of 50 mM Hepes (pH 7.4), 100 mM NaCl, 5 mM CaCl2, and 0.005% Brij-35. […] The enzymatic reactions were initiated by adding the substrate to a final concentration of 20 μM, and mixing 10 times with a pipette. The final DMSO concentration in the assay was 6.0%.
Plots of the inhibitor concentration vs. the percent inhibition were fit to the following equation: y=(a−d)/[1+(x/c)^b]+d, a general sigmoidal curve with Hill slope, a to d. x is the inhibitor concentration under test. y is the percent inhibition. a is the limiting response as x approaches zero. As x increases without bound, y tends toward its limit d. c is the inflection point (IC50) for the curve. That is, y is halfway between the lower and upper asymptotes when x=c. b is the slope factor or Hill coefficient.

Where [3] appears, read: recombinant human catalytic domain of MMP-13, read-out: MMP-13 IC50.

On to `CC(C)C(NS(=O)(=O)c1ccc(-c2ccc(NC(=O)c3cc4cc(NS(C)(=O)=O)ccc4o3)cc2)cc1)C(=O)O` (stereo in doubt) [Example 8, N-({4′-[({5-[(methylsulfonyl)amino]-1-benzofuran-2-yl}carbonyl)amino]-1,1′-biphenyl-4-yl}sulfonyl)-L-valine], for which the IC50 in assay [1] (MMP-13 IC50, recombinant human catalytic domain of MMP-13) is 0.4 nM; in assay [2], 3.9 nM.
For the molecule `CC(=O)Nc1ccc2oc(C(=O)Nc3ccc(-c4ccc(S(=O)(=O)NC(C(=O)O)C(C)C)cc4)cc3)cc2c1` (stereo in doubt) [Example 9, N-{[4′-({[5-(acetylamino)-1-benzofuran-2-yl]carbonyl}amino)-1,1′-biphenyl-4-yl]sulfonyl}-L-valine], the IC50 came out at 1.3 nM in assay [1] (setting [3]) and 4 nM in assay [2].
Turning to `COc1c(Br)ccc2oc(C(=O)Nc3ccc(-c4ccc(S(=O)(=O)NC(C(=O)O)C(C)C)cc4)cc3)c(C)c12` (stereo in doubt) [Example 119, (R)-2-{4′-[(5-Bromo-4-methoxy-3-methyl-benzofuran-2-carbonyl)-amino]-biphenyl-4-sulfonylamino}-3-methyl-butyric acid], the 50% inhibitory concentration (IC50) in assay [1] (setting [3]) worked out at 3.4 nM; in assay [2] it was 688 nM.
The like results for `CC(C)[C@H](NS(=O)(=O)c1ccc(-c2ccc(NC(=O)c3cc4cc(Cl)ccc4o3)cc2)cc1)C(=O)O` [Example 4] were, in that order, 0.3 nM and 4.1 nM.
With `COc1cccc2cc(C(=O)Nc3ccc(-c4ccc(S(=O)(=O)N[C@H](C(=O)O)C(C)C)cc4)cc3)oc12` [Example 5, N-[(4′-{[(7-methoxy-1-benzofuran-2-yl)carbonyl]amino}-1,1′-biphenyl-4-yl)sulfonyl]-L-valine], the IC50 in assay [1] (setting [3]) was 10.4 nM.
Take `CC(C)[C@H](NS(=O)(=O)c1ccc(-c2ccc(NC(=O)c3cc4cc([N+](=O)[O-])ccc4o3)cc2)cc1)C(=O)O` [Example 6, N-[(4′-{[(5-nitro-1-benzofuran-2-yl)carbonyl]amino}-1,1′-biphenyl-4-yl)sulfonyl]-L-valine]: the IC50 came out at 0.7 nM in assay [1] (setting [3]) and 3.3 nM in assay [2].
For the molecule `CC(C)[C@H](NS(=O)(=O)c1ccc(-c2ccc(NC(=O)c3cc4cc(N)ccc4o3)cc2)cc1)C(=O)O` [Example 7, N-[(4′-{[(5-amino-1-benzofuran-2-yl)carbonyl]amino}-1,1′-biphenyl-4-yl)sulfonyl]-L-valine], the concentration for half-maximal inhibition (IC50) in assay [1] (setting [3]) is 1.5 nM.
In the case of `CC(C)[C@H](NS(=O)(=O)c1ccc(-c2ccc(NC(=O)c3cc4cc(NS(=O)(=O)c5ccccc5)ccc4o3)cc2)cc1)C(=O)O` [Example 10, 4′-[(5-Benzenesulfonylamino-benzofuran-2-carbonyl)-amino]-biphenyl-4-sulfonyl-L-valine], the results for the IC50 in assay [1] (setting [3]) and in assay [2] were 3.4 nM and 19 nM, respectively.
Consider `COc1cccc2oc(C(=O)Nc3ccc(-c4ccc(S(=O)(=O)N[C@H](C(=O)O)C(C)C)cc4)cc3)cc12` [Example 11, N-[(4′-{[(4-methoxy-1-benzofuran-2-yl)carbonyl]amino}-1,1′-biphenyl-4-yl)sulfonyl]-L-valine], for which the IC50 stood at 2.3 nM in assay [1] (setting [3]) and 16 nM in assay [2].
Taken in the same sequence, the figures for `CC(C)[C@H](NS(=O)(=O)c1ccc(-c2ccc(NC(=O)c3cc4ccccc4s3)cc2)cc1)C(=O)O` [Example 12, 4′-[(Benzo[β]thiophene-2-carbonyl)-amino]-biphenyl-4-sulfonyl-L-valine] were 6.2 nM and 149 nM.
Consider `CC(C)[C@H](NS(=O)(=O)c1ccc(-c2ccc(NC(=O)c3cc4c(OCc5ccccc5)cccc4o3)cc2)cc1)C(=O)O` [Example 13, 4′-[(4-Benzyloxy-benzofuran-2-carbonyl)-amino]-biphenyl-4-sulfonyl-L-valine], for which, in assay [2], the IC50 came out at 62 nM.
Regarding `CC(Oc1cccc2oc(C(=O)Nc3ccc(-c4ccc(S(=O)(=O)N[C@H](C(=O)O)C(C)C)cc4)cc3)cc12)C(=O)O` (stereo partly drawn) [Example 14, 4′-{[4-(1-Carboxy-ethoxy)-benzofuran-2-carbonyl]-amino}-biphenyl-4-sulfonyl-L-valine], the IC50 in assay [1] (setting [3]) worked out at 11 nM; in assay [2] it was 916 nM.
As for `NC(=O)C[C@H](NS(=O)(=O)c1ccc(-c2ccc(NC(=O)c3cc4ccccc4o3)cc2)cc1)C(=O)O` [Example 15, N2-({4′-[(1-Benzofuran-2-ylcarbonyl)animo]-1,1′-biphenyl-4-yl}sulfonyl)-L-Asparagine], the half-inhibitory concentration (IC50) worked out at 2.5 nM in assay [1] (setting [3]) and 10 nM in assay [2].
For `O=C(Nc1ccc(-c2ccc(S(=O)(=O)N[C@@H](Cc3cnc[nH]3)C(=O)O)cc2)cc1)c1cc2ccccc2o1` [Example 17, N-({4′-[(1-Benzofuran-2-ylcarbonyl)amino]-1,1′-biphenyl-4-yl}sulfonyl)-L-Histidine], the IC50 in assay [2] came to 37 nM.
On to `Cc1cc(-c2cccc3oc(C(=O)Nc4ccc(-c5ccc(S(=O)(=O)N[C@H](C(=O)O)C(C)C)cc5)cc4)c(C)c23)on1` [Example 35, L-3-Methyl-2-(4′-{[3-methyl-4-(3-methyl-isoxazol-5-yl)-benzofuran-2-carbonyl]-amino}-biphenyl-4-sulfonylamino)-butyric acid], for which, in assay [1] (setting [3]), the half-inhibitory concentration (IC50) is 9.9 nM.
The same measure, in the same setting: the result for `COc1cc(OC)c2c(C)c(C(=O)Nc3ccc(-c4ccc(S(=O)(=O)N[C@H](C(=O)O)C(C)C)cc4)cc3)oc2c1C` [Example 44, L-2-{4′-[(4,6-Dimethoxy-3,7-dimethyl-benzofuran-2-carbonyl)-amino]-biphenyl-4-sulfonylamino}-3-methyl-butyric acid] reads 286 nM; that for `CC(C)[C@H](NS(=O)(=O)c1ccc(-c2ccc(NC(=O)c3oc4ccccc4c3-c3ccccc3)cc2)cc1)C(=O)O` [Example 54, L-3-Methyl-2-{4′-[(3-phenyl-benzofuran-2-carbonyl)-amino]-biphenyl-4-sulfonylamino}-butyric acid], 220 nM.
Regarding `Cc1nc(-c2ccc(C(F)(F)F)cc2)sc1C(=O)Nc1ccc(-c2ccc(S(=O)(=O)N[C@H](C(=O)O)C(C)C)cc2)cc1` [Example 66, (S)-3-Methyl-2-(4′-{[4-methyl-2-(4-trifluoromethyl-phenyl)-thiazole-5-carbonyl]-amino}-biphenyl-4-sulfonylamino)-butyric acid], in assay [1] (setting [3]), the concentration for half-maximal inhibition (IC50) came out at 121 nM.
For `CC(C)[C@H](NS(=O)(=O)c1ccc(-c2ccc(NC(=O)c3cc4ccccc4o3)cn2)cc1)C(=O)O` [Example 76, 4-{5-[(Benzofuran-2-carbonyl)-amino]-pyridin-2-yl}-benzenesulfonyl-L-valine], in assay [1] (setting [3]), the 50% inhibitory concentration (IC50) was determined as 3.1 nM.
Same read-out and setting: next, `CC(C)[C@@H](C(=O)O)N(C)S(=O)(=O)c1ccc(-c2ccc(NC(=O)c3cc4ccccc4o3)cc2)cc1` [Example 78, N-({4′-[(1-Benzofuran-2-ylcarbonyl)amino]-1,1′-biphenyl-4-yl}sulfonyl)-N-methyl-L-valine]: 5600 nM.
The same measure, in the same setting: next, `CC(C)[C@@H](C(=O)O)N(Cc1cccnc1)S(=O)(=O)c1ccc(-c2ccc(NC(=O)c3cc4ccccc4o3)cc2)cc1` [Example 81, N-({4′-[(1-Benzofuran-2-ylcarbonyl)amino]-1,1′-biphenyl-4-yl}sulfonyl)-N-(pyridin-3-ylmethyl)-L-valine]: 323 nM; `CC(C)[C@H](NS(=O)(=O)c1ccc(-c2ccc(NC(=O)c3oc4cccc5c4c3CN(C)CC5)cc2)cc1)C(=O)O` [Example 85, N-[(4′-{[(4-Methyl-3,4,5,6-tetrahydrofuro[4,3,2-ef][3]benzazepin-2-yl)carbonyl]amino}-1,1′-biphenyl-4-yl)sulfonyl]-L-valine]: 294 nM.
The same measure, in the same setting: next, `COc1c(C(C)=O)ccc2oc(C(=O)Nc3ccc(-c4ccc(S(=O)(=O)N[C@H](C(=O)O)C(C)C)cc4)cc3)c(C)c12` [Example 121, (S)-2-{4′-[(5-Acetyl-4-methoxy-3-methyl-benzofuran-2-carbonyl)-amino]-biphenyl-4-sulfonylamino}-3-methyl-butyric acid]: 1020 nM; `C=C(Cl)c1ccc2oc(C(=O)Nc3ccc(-c4ccc(S(=O)(=O)N[C@H](C(=O)O)C(C)C)cc4)cc3)c(C)c2c1OC` [Example 122, (S)-2-(4′-{[5-(1-Chloro-vinyl)-4-methoxy-3-methyl-benzofuran-2-carbonyl]-amino}-biphenyl-4-sulfonylamino)-3-methyl-butyric acid]: 222 nM.
Turning to `COCCCc1cccc2oc(COc3ccc(-c4ccc(S(=O)(=O)N[C@H](C(=O)O)C(C)C)cc4)cc3)c(C)c12` [Example 147, N-[(4′-{[4-(3-methoxypropyl)-3-methyl-1-benzofuran-2-yl]methoxy}-1,1′-biphenyl-4-yl)sulfonyl]-L-valine], the 50% inhibitory concentration (IC50) in assay [1] (setting [3]) came out at 1.9 nM.
Consider `CC(C)[C@H](NS(=O)(=O)c1ccc(-c2ccc(NC(=O)c3csnn3)cc2)cc1)C(=O)O` [Example 163, N-({4′-[(1,2,3-thiadiazol-4-ylcarbonyl)amino]-1,1′-biphenyl-4-yl}sulfonyl)-L-valine], for which the IC50 in assay [2] was found to be 2 nM.
In the case of `CC(C)[C@H](NS(=O)(=O)c1ccc(-c2ccc(NS(=O)(=O)c3cccs3)cc2)cc1)C(=O)O` [Example 170, (S)-3-Methyl-2-[4′-(thiophene-2-sulfonylamino)-biphenyl-4-sulfonylamino]-butyric acid], in assay [1] (setting [3]), the IC50 came out at 2870 nM.

In general, IC50 refers to the concentration needed to halve the response being measured.
